Laboratory results from patent publication US20090182031A1, “Reduction of Hair Growth” (The Gillette Company, a Delaware corporation, priority 2004, published 2009).

Tested on: human hair follicles
Test: Human hair follicle growth assay
Format: cell-based
Settings: for % Reduction (hair growth): versus control
Text: Human skin was obtained from a plastic surgeon as a by-product of face-lift procedures. The skin samples generally consisted of haired and non-haired regions taken from the area of the face. Immediately after removal, the skin was placed in Williams E medium containing antibiotics, and kept refrigerated. The Williams E medium was commercially obtained (Life Technologies, Gaithersburg, Md.), and has been formulated with essential nutrients for maintaining viability of hair follicle in an in-vitro environment.
Human hair follicles in growth phase (anagen) were isolated from face-lift tissue under a dissecting scope using a scalpel and watchmakers forceps. The skin was sliced into thin strips exposing 2-3 rows of follicles that could readily be dissected. Follicles were placed into 0.5 ml Williams E medium supplemented with 2 mM L-glutamine, 10 ug/ml insulin, 10 ng/ml hydrocortisone, 100 units penicillin, 0.1 mg/ml streptomycin and 0.25 μg/ml amphotericin B. The follicles were incubated in 24 well plates (1 follicle/well) at 37° C. in an atmosphere of 5% CO2 and 95% air. Hair follicle images were taken in the 24-well plates under the dissecting scope under a power of 20×. Hair follicle lengths were measured on day 0 (day follicles were placed in culture) and again on day 6-7. In this system follicles appear to fully differentiate into a hair fiber and increase in length at a rate similar to the human, in vivo, rate of about 0.3 mm/day. For testing inhibitors of heat shock proteins, the inhibitors or anti-HSP antibody were included in the culture medium from time 0 and remained in the medium throughout the course of the experiment.

Structure (SMILES)	% Reduction (hair growth) (0.1 μM, day 0 to day 6)	Length Increase (mm) (0.1 μM, follicle length day 6 minus day 0)	% Reduction (hair growth) (1 μM, day 0 to day 6)	Length Increase (mm) (1 μM, follicle length day 6 minus day 0)	reduction of hair growth (submicromolar dose)	% Reduction (hair growth) (10 μM, day 0 to day 5)	Length Increase (mm) (10 μM, follicle length day 5 minus day 0)	% Reduction (hair growth) (50 μM, day 0 to day 5)	Length Increase (mm) (50 μM, follicle length day 5 minus day 0)
COC1=C2C[C@@H](C)C[C@H](OC)[C@H](O)[C@@H](C)/C=C(\C)[C@H](OC(N)=O)[C@@H](OC)/C=C\C=C(/C)C(=O)NC(=CC1=O)C2=O [Geldanamycin, 2-Azabicyclo[16.3.1]docosa-4,6,10,18,21-pentaene-3,20,22-trione, 9,13-dihydroxy-8,14,19-trimethoxy-4,10,12,16-tetramethyl-, 9-carbamate (8CI)]	52%	0.55 ± 0.13 mm	74%	0.30 ± 0.08 mm	over 50%	–	–	–	–
O=CN1CCC(=Cc2ccc3c(c2)OCO3)C1=O [KNK 437, 1-Pyrrolidinecarboxaldehyde, 3-(1,3-benzodioxol-5-ylmethylene)-2-oxo-(9CI)]	–	–	–	–	–	57%	0.75 ± 0.13 mm	80%	0.35 ± 0.12 mm
